Laboratory results as given in ChEMBL document CHEMBL5365456, “Isolation and biological activity of natural chalcones based on antibacterial mechanism classification” (Bioorg Med Chem, 2023).
Converted amounts (≈) assume the structure as drawn.

Tests used:
[1] = Haemolytic activity in rabbit Erythrocyte infected with methicillin-Resistant Staphylococcus aureus 2985 assessed as inhibition of alpha-toxin production at 2 ug/ml incubated for 15 mins; format: toxicity, cell-based, Oryctolagus cuniculus; settings: 0.25 h, at 2 µg/mL
Bacillus subtilis = experiment: Antibacterial activity against Bacillus subtilis IFO 3060 assessed bacterial growth inhibition by two-fold serial broth dilution method; format: functional
Candida albicans [2] = experiment: Antibiofilm activity against Candida albicans LAM-1 at 2 ug/ml incubated for 24 hrs by crystal violet staining based assay relative to control; format: functional
Staphylococcus aureus [3] = experiment: Antibiofilm activity against Staphylococcus aureus ATCC 29213 at 128 ug/ml relative to control; format: functional
[4] = Inhibition of Micrococcus luteus IFO 3333 membrane NADH oxidase by absorbance based assay; format: cell membranes
Staphylococcus aureus [5] = experiment: Antibacterial activity against Staphylococcus aureus ATCC 29213 assessed as bacterial growth inhibition incubated for 24 hrs by CLSI-based assay; format: functional
Escherichia coli = experiment: Antibacterial activity against Escherichia coli HUT 215 assessed bacterial growth inhibition by two-fold serial broth dilution method; format: functional
Candida albicans [6] = experiment: Antibiofilm activity against Candida albicans ATCC 28366 at 2 ug/ml incubated for 24 hrs by crystal violet staining based assay relative to control; format: functional
Staphylococcus aureus [7] = experiment: Antibacterial activity against Staphylococcus aureus IFO 3007 assessed bacterial growth inhibition by two-fold serial broth dilution method; format: functional
Staphylococcus aureus [8] = experiment: Antibacterial activity against methicillin-Sensitive Staphylococcus aureus ATCC 29213 assessed as bacterial growth inhibition by CLSI-based broth microdilution method; format: functional
Enterococcus faecalis [9] = experiment: Antibacterial activity against Enterococcus faecalis 16C51 assessed as bacterial growth inhibition by CLSI based broth microdilution assay; format: functional
[10] = Inhibition of Staphylococcus aureus IFO 3007 membrane NADH oxidase by absorbance based assay; format: cell membranes
Staphylococcus aureus [11] = experiment: Antibacterial activity against methicillin-Resistant Staphylococcus aureus 2985 assessed as bacterial growth inhibition by CLSI-based broth microdilution method; format: functional
Candida albicans [12] = experiment: Antifungal activity against Candida albicans LAM-1 assessed as fungal growth inhibition incubated for 24 hrs; format: functional
Candida albicans [13] = experiment: Antibiofilm activity against Candida albicans ATCC 28366 at 0.2 ug/ml incubated for 24 hrs by crystal violet staining based assay relative to control; format: functional
Staphylococcus aureus [14] = experiment: Antibiofilm activity against Staphylococcus aureus ATCC 29213 at 16 ug/ml relative to control; format: functional
Pseudomonas aeruginosa = experiment: Antibacterial activity against Pseudomonas aeruginosa JCM 2776 assessed bacterial growth inhibition by two-fold serial broth dilution method; format: functional
Streptococcus suis [15] = experiment: Antibiofilm activity against Streptococcus suis 05ZYH33 assessed as inhibition of biofilm formation at 4 ug/ml incubated for 18 to 24 hrs by crystal violet staining based assay relative to control; format: functional; settings: time 18-24 hrs
Candida albicans [16] = experiment: Antifungal activity against Candida albicans ATCC 28366 assessed as fungal growth inhibition incubated for 24 hrs; format: functional
[17] = Inhibition of Escherichia coli HUT 215 membrane NADH oxidase by absorbance based assay; format: cell membranes
[18] = Inhibition of Pseudomonas aeruginosa JCM 2776 membrane NADH oxidase by absorbance based assay; format: cell membranes
Candida albicans [19] = experiment: Antibiofilm activity against Candida albicans LAM-1 at 0.2 ug/ml incubated for 24 hrs by crystal violet staining based assay; format: functional
Enterococcus faecalis [20] = experiment: Antibiofilm activity against Enterococcus faecalis 16C106 at 2.115 ug/ml incubated for 24 hrs by crystal violet staining based assay relative to control; format: functional
Micrococcus luteus = experiment: Antibacterial activity against Micrococcus luteus IFO 3333 assessed bacterial growth inhibition by two-fold serial broth dilution method; format: functional
Enterococcus faecalis [21] = experiment: Antibiofilm activity against Enterococcus faecalis 16C51 at 4.23 ug/ml incubated for 24 hrs by crystal violet staining based assay relative to control; format: functional
Enterococcus faecalis [22] = experiment: Antibacterial activity against Enterococcus faecalis 16C106 assessed as bacterial growth inhibition by CLSI based broth microdilution assay; format: functional
Enterococcus faecalis [23] = experiment: Antibiofilm activity against Enterococcus faecalis 16C51 at 2.115 ug/ml incubated for 24 hrs by crystal violet staining based assay relative to control; format: functional
[24] = Hemolytic activity in human RBC infected with Streptococcus suis 05ZYH33 at 2 ug/ml measured after 1 hr by microplate reader method; format: toxicity, cell-based; settings: erythrocyte, at 2 µg/mL
Rhizomucor pusillus = experiment: Antibacterial activity against Rhizomucor pusillus HUT 1185 assessed bacterial growth inhibition by two-fold serial broth dilution method; format: functional
Candida albicans [25] = experiment: Inhibition of Candida albicans LAM-1 hyphal transition at 100 ug/ml incubated upto 4 hrs relative to control; format: functional
[26] = Haemolytic activity in rabbit Erythrocyte infected with Staphylococcus aureus ATCC 29213 assessed as inhibition of alpha-toxin production at 2 ug/ml incubated for 15 mins; format: toxicity, cell-based, Oryctolagus cuniculus; settings: 0.25 h, at 2 µg/mL
Staphylococcus aureus [27] = experiment: Antibacterial activity against Staphylococcus aureus ATCC 29213 assessed bacterial growth inhibition by CLSI-based broth microdilution method; format: functional
[28] = Hemolytic activity in human RBC infected with Streptococcus suis 05ZYH33 at 1.5 ug/ml measured after 1 hr by microplate reader method; format: toxicity, cell-based; settings: erythrocyte, at 1.5 µg/mL
Candida albicans [29] = experiment: Inhibition of Candida albicans ATCC 28366 hyphal transition at 100 ug/ml incubated upto 4 hrs relative to control; format: functional
Streptococcus suis [30] = experiment: Antibiofilm activity against Streptococcus suis 05ZYH33 assessed as inhibition of biofilm formation at 3 ug/ml incubated for 18 to 24 hrs by crystal violet staining based assay relative to control; format: functional; settings: time 18-24 hrs
Streptococcus suis [31] = experiment: Antibacterial activity against Streptococcus suis 05ZYH33 assessed as bacterial growth inhibition incubated for 24 hrs; format: functional
[32] = Inhibition of Micrococcus luteus IFO 3333 membrane NADH-cytochrome c reductase by absorbance based assay; format: cell membranes
Enterococcus faecalis [33] = experiment: Antibiofilm activity against Enterococcus faecalis 16C106 at 4.23 ug/ml incubated for 24 hrs by crystal violet staining based assay relative to control; format: functional

With `C=CC(C)(C)c1cc(/C=C/C(=O)c2ccc(O)cc2)c(OC)cc1O` [LICOAGROCHACONE A] the “inhibition (INH)” value [1] was 93%, the MIC (Bacillus subtilis) was 3.13 mg/L (≈ 9.25 µM) and the inhibition at 2 µg/mL (Candida albicans [2]) was 76%. For the same compound, the inhibition at 128 µg/mL (Staphylococcus aureus [3]) was 60%, the IC50 [4] was 6.2 µM and the MIC (Staphylococcus aureus [5]) was 2 mg/L (≈ 5.91 µM). The MIC (Escherichia coli) was greater than 100 mg/L, the inhibition at 2 µg/mL (Candida albicans [6]) was 81% and the MIC (Staphylococcus aureus [7]) was 1.56 mg/L (≈ 4.61 µM). It also gave an MIC (Staphylococcus aureus [8]) of 4 mg/L (≈ 11.8 µM), an MIC (Enterococcus faecalis [9]) of 8.46 mg/L (≈ 25 µM) and an IC50 [10] of 8 µM. It also gave an MIC (Staphylococcus aureus [11]) of 4 mg/L (≈ 11.8 µM), an MIC (Candida albicans [12]) of 12.5 mg/L (≈ 36.9 µM) and an inhibition at 0.2 µg/mL (Candida albicans [13]) of 59%. For the same compound, the inhibition at 16 µg/mL (Staphylococcus aureus [14]) was 60%, the MIC (Pseudomonas aeruginosa) was greater than 100 mg/L and the inhibition at 4 µg/mL (Streptococcus suis [15]) was 60%. It also gave an MIC (Candida albicans [16]) of 6.25 mg/L (≈ 18.5 µM), an IC50 [17] of 9.5 µM and an IC50 [18] of 18.9 µM. The inhibition at 0.2 µg/mL (Candida albicans [19]) was 35%, the inhibition at 2.115 µg/mL (Enterococcus faecalis [20]) was 50% and the MIC (Micrococcus luteus) was 1.56 mg/L (≈ 4.61 µM). For the same compound, the inhibition at 4.23 µg/mL (Enterococcus faecalis [21]) was 80%, the MIC (Enterococcus faecalis [22]) was 8.46 mg/L (≈ 25 µM) and the inhibition at 2.115 µg/mL (Enterococcus faecalis [23]) was 50%. The “inhibition (INH)” value [24] was 81%, the MIC (Rhizomucor pusillus) was 12.5 mg/L (≈ 36.9 µM) and the inhibition at 100 µg/mL (Candida albicans [25]) was 79%. For the same compound, the “inhibition (INH)” value [26] was 95%, the MIC (Staphylococcus aureus [27]) was 4 mg/L (≈ 11.8 µM) and the “inhibition (INH)” value [28] was 63%. It also gave an inhibition at 100 µg/mL (Candida albicans [29]) of 100%, an inhibition at 3 µg/mL (Streptococcus suis [30]) of 30% and an MIC (Streptococcus suis [31]) of 4 mg/L (≈ 11.8 µM). The IC50 [32] was 14.8 µM and the inhibition at 4.23 µg/mL (Enterococcus faecalis [33]) was 85%.
